ChEMBL document CHEMBL5465560, “Selectivity Literature for EUbOPEN Chemogenomic Library” (2024)
Each block holds one compound with its values, some of them ahead of it.

Assays:
[1] = target: T1, Cyclin-dependent kinase 11A (Homo sapiens) (UniProt Q9UQ88); assay: Selectivity interaction (KinomeScan (DiscoverX)) EUB0000618a CDK11A; details: at 10 µM
T1 sequence (whole entry): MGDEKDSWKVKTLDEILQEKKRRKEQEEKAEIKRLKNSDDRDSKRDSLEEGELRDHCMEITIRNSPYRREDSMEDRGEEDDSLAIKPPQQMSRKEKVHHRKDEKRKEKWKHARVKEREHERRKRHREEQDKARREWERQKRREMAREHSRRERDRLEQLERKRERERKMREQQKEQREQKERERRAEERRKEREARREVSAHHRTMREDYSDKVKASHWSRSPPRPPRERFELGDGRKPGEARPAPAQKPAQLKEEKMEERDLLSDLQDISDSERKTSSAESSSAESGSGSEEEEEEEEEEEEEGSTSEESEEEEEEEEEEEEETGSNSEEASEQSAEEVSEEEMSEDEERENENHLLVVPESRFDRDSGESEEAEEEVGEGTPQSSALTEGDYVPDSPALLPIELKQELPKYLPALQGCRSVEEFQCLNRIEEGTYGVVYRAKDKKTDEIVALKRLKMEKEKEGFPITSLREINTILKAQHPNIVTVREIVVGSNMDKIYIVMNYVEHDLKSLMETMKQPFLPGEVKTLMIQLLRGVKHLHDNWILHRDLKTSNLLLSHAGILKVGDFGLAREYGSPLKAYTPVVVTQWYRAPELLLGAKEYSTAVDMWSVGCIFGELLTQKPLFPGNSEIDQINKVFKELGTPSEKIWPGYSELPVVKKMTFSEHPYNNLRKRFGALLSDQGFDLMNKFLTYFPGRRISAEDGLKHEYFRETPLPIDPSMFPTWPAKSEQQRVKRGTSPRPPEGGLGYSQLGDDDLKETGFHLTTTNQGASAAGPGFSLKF

[2] = target: Maternal embryonic leucine zipper kinase (Homo sapiens) (UniProt Q14680); assay: Selectivity interaction (KinomeScan (DiscoverX)) EUB0000607a MELK; details: at 10 µM
[3] = target: T2, Casein kinase I isoform alpha-like (Homo sapiens) (UniProt Q8N752); assay: Selectivity interaction (KinomeScan (DiscoverX)) EUB0000045b CSNK1A1L
T2 sequence (whole entry): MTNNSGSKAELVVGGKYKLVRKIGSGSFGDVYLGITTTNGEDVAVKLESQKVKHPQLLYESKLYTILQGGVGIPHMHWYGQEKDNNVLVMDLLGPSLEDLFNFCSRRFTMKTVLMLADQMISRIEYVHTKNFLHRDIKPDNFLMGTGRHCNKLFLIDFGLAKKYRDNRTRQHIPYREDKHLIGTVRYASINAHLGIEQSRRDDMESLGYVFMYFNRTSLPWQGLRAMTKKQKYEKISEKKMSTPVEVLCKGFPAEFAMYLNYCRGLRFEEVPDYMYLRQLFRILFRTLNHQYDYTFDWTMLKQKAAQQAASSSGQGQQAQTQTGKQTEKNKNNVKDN

[4] = target: BDNF/NT-3 growth factors receptor (Homo sapiens) (UniProt Q16620); assay: Selectivity interaction (KinomeScan (DiscoverX)) EUB0000045b NTRK2
[5] = target: Bone morphogenetic protein receptor type-1B (Homo sapiens, UniProt O00238); assay: Selectivity interaction (KinomeScan (DiscoverX)) EUB0000595a BMPR1B; details: at 10 µM
[6] = target: Serine/threonine-protein kinase tousled-like 2 (Homo sapiens) (UniProt Q86UE8); assay: Selectivity interaction (Kinase panel (KiNativ target engagement assay in Jurkat cells)) EUB0001635a TLK2; type: cell-based; details: at 1 µM
[7] = target: T3, Serine/threonine-protein kinase LATS1 (Homo sapiens) (UniProt O95835); assay: Selectivity interaction (ActivX KiNativ screen (kinase selectivity in THP-1 cell lysates)) EUB0000639a LATS1; type: subcellular; details: lysate, at 0.2 µM
T3 sequence (whole entry): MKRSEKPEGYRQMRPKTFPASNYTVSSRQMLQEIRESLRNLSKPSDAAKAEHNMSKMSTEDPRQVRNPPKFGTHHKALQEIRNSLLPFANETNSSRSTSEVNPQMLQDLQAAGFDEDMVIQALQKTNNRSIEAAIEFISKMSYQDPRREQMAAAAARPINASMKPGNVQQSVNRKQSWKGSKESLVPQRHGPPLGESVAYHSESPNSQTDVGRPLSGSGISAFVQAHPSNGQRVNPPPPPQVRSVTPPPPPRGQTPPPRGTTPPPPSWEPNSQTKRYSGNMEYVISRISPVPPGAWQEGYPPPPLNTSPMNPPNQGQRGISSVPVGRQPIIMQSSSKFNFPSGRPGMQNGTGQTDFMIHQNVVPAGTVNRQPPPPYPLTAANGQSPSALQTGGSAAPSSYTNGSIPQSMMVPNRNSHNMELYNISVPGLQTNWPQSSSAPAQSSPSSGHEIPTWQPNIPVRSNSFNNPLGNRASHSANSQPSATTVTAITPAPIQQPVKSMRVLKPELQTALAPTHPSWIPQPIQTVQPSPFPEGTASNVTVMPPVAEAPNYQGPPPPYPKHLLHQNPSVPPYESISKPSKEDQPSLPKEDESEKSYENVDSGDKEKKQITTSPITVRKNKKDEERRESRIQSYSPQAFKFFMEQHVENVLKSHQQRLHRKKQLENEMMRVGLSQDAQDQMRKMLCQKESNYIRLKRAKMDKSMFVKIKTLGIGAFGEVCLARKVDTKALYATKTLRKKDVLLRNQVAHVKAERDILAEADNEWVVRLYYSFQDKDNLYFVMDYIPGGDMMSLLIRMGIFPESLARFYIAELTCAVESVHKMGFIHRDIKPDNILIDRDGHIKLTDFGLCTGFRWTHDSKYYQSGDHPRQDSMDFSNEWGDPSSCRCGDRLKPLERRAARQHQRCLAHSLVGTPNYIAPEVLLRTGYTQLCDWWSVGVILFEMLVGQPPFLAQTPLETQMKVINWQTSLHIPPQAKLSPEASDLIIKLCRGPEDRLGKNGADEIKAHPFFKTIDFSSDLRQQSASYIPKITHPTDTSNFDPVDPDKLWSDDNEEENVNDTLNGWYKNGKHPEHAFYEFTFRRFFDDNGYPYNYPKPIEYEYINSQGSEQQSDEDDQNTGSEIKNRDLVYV

[8] = target: Cyclin-dependent kinase 14 (Homo sapiens) (UniProt O94921); assay: Selectivity interaction (ActivX KiNativ screen (kinase selectivity in THP-1 cell lysates)) EUB0000639a CDK14; type: subcellular; details: lysate, at 0.01 µM
[9] = target: Mitogen-activated protein kinase kinase kinase 11 (Homo sapiens) (UniProt Q16584); assay: Selectivity interaction (ProQinase) EUB0000171b MAP3K11
[10] = target: Non-receptor tyrosine-protein kinase TYK2 (Homo sapiens, UniProt P29597); assay: Selectivity interaction (KinomeScan (DiscoverX)) EUB0000092b TYK2; details: at 10 µM
Non-receptor tyrosine-protein kinase TYK2, sequence (P29597 whole entry): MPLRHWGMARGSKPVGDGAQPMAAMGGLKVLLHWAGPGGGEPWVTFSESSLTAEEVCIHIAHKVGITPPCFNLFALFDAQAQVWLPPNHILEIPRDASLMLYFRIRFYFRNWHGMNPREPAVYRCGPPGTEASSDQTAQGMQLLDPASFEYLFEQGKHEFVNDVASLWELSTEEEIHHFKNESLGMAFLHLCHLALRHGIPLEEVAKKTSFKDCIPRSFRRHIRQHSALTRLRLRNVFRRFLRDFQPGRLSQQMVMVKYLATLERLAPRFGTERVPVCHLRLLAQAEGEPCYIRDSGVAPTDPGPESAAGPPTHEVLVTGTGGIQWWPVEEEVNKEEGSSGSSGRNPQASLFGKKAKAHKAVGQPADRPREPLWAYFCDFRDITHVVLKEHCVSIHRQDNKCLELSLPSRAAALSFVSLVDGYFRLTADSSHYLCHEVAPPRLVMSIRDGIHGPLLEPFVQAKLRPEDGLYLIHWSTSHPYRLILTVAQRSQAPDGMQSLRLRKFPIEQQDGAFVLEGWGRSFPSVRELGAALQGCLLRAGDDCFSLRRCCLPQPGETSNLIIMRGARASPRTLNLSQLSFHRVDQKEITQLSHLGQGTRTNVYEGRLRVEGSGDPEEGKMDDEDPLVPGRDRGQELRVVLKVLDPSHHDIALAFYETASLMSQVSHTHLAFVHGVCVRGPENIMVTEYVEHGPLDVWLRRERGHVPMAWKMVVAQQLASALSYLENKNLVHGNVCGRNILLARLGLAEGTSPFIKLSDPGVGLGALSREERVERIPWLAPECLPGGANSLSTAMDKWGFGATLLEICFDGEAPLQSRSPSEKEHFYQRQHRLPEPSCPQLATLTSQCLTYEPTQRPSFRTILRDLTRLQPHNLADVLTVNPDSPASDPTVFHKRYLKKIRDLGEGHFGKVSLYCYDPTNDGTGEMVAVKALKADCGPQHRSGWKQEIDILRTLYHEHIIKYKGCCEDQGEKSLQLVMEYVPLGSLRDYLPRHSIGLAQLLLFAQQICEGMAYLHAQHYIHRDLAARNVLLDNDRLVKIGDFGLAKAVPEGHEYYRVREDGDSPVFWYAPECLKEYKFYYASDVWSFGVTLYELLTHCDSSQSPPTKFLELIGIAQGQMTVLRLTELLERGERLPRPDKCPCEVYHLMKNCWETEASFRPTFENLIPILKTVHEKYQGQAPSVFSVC

BDNF/NT-3 growth factors receptor (Homo sapiens), sequence (Q16620 32-822 limits assumed): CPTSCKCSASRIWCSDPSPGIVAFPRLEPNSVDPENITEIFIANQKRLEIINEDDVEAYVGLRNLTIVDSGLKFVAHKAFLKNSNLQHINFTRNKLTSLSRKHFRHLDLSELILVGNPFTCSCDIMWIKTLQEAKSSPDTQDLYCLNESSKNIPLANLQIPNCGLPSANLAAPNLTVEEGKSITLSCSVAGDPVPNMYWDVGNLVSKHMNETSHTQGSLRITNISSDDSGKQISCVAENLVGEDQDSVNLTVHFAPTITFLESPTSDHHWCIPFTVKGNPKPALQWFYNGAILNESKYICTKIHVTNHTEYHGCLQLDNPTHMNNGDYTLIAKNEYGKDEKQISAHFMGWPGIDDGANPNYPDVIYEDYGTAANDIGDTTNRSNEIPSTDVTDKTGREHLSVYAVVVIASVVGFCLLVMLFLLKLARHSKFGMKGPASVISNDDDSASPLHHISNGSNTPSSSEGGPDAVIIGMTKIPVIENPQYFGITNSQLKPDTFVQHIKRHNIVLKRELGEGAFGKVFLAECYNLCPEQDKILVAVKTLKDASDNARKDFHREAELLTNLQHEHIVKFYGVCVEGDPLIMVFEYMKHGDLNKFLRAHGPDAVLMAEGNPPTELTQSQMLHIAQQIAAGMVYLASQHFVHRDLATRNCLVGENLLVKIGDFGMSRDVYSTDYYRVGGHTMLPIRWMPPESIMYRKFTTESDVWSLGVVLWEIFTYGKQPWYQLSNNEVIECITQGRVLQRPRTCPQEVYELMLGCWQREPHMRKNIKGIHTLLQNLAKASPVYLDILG
Mitogen-activated protein kinase kinase kinase 11 (Homo sapiens), sequence (Q16584 whole entry, looked up): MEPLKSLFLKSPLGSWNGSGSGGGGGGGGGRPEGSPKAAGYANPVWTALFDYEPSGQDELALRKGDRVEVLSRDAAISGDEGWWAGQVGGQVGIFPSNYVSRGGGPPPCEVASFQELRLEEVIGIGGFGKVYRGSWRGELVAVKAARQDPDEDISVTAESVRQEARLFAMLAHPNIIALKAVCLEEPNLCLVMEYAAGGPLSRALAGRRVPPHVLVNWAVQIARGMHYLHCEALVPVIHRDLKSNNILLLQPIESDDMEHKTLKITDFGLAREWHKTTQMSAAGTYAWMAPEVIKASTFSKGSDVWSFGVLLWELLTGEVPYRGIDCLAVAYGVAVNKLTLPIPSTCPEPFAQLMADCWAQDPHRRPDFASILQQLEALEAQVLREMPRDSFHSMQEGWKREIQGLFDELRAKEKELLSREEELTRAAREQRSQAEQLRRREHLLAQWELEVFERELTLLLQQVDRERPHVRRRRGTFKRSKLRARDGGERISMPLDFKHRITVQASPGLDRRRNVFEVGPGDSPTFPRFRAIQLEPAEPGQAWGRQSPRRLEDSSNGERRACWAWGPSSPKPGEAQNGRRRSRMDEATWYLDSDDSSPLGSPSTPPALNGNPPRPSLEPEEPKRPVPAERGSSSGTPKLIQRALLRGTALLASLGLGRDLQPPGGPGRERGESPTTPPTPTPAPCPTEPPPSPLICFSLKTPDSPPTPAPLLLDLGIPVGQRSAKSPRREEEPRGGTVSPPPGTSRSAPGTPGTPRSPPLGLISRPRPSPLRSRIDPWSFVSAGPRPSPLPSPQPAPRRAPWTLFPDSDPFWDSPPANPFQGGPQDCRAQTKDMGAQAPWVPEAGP
Serine/threonine-protein kinase tousled-like 2 (Homo sapiens), sequence (Q86UE8 whole entry, looked up): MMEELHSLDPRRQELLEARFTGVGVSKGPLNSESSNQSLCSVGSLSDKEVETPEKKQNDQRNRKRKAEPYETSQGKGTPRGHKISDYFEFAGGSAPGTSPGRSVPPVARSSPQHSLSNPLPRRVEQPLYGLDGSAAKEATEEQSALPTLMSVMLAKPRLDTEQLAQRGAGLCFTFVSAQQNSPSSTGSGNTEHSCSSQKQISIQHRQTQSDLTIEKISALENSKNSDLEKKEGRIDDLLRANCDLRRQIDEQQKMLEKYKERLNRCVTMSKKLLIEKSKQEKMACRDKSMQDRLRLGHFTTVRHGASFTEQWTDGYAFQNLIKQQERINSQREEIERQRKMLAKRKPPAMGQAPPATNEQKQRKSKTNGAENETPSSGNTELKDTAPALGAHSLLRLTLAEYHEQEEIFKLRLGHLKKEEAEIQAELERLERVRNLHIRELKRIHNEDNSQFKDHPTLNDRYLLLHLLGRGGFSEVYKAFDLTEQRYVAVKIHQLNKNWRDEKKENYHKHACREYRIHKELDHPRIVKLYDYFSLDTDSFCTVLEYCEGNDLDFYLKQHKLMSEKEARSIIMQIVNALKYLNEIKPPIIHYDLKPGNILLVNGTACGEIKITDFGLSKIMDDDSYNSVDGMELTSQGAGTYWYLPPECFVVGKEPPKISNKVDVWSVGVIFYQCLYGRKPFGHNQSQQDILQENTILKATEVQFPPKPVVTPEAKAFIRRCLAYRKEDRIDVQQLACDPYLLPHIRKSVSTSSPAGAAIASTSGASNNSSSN
Cyclin-dependent kinase 14 (Homo sapiens), sequence (O94921 whole entry): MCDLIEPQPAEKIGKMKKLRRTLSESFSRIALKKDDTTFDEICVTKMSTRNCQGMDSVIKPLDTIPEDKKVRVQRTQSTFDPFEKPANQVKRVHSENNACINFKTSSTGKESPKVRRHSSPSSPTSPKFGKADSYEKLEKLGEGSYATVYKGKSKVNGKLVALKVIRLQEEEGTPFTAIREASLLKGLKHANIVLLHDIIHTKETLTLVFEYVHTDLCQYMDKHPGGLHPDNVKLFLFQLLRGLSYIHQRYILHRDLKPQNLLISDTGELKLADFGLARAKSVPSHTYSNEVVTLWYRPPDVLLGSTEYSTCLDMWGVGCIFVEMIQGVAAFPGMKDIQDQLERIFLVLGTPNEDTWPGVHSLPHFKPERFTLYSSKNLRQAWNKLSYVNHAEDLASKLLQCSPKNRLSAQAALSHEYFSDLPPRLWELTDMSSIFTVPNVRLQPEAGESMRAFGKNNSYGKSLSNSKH
Bone morphogenetic protein receptor type-1B, sequence (O00238 whole entry): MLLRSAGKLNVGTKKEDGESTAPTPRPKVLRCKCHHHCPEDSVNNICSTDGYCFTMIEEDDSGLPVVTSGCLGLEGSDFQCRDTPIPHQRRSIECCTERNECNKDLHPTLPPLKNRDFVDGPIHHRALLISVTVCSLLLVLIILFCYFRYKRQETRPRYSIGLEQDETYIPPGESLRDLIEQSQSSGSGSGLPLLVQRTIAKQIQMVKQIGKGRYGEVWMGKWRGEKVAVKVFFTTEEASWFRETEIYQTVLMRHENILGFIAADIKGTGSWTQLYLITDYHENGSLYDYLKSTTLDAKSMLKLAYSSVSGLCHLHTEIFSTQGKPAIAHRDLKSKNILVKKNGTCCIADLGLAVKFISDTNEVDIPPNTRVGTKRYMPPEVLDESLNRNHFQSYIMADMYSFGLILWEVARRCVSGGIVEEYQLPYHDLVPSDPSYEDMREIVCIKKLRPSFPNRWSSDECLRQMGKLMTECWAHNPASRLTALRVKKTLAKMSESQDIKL

Compound: O[C@H]1CC[C@H](Nc2ncc3nc(Nc4c(F)cc(F)cc4F)n([C@H]4CCOC4)c3n2)CC1
% of control [1]: 100%

Compound: CNC(=O)Nc1ccc(-c2nc(N3CC4CCC(C3)O4)c3cnn(C4CCC5(CC4)OCCO5)c3n2)cc1
% of control [2]: 92%

Compound: C=CC(=O)Nc1cc(-n2c(=O)ccc3cnc4ccc(-c5ccc(NS(C)(=O)=O)cc5)cc4c32)ccc1C
% of control ([3]; at 1 µM): 100%
% of control ([3]; at 10 µM): 100%
% of control ([4]; at 1 µM): 62%
% of control ([4]; at 10 µM): 78%

Compound: COCC(=O)NC/C=C/c1ccc2ncnc(Nc3ccc(Oc4ccc(C)nc4)c(C)c3)c2c1 [CP-724714]
% of control [5]: 17%

Compound: C=CC(=O)Nc1ccc(C(=O)Nc2[nH]nc3c2CN(C(=O)N[C@H](CN(C)C)c2ccccc2)C3(C)C)cc1
% of engagement ([6]; Selectivity number of off-targets 0.0, Selectivity number of targets 233.0, Source Knowledge https://www.sciencedirect.com/science/article/pii/S2451945619300674?via%3Dihub): 6.8%
% of engagement [6]: 13.7%

% of inhibition [7]: -82.2%
% of inhibition [8]: -16.8%
Compound: CC[C@@H]1[C@H](F)C(=O)N[C@@H]1COc1nccc2cc(C(N)=O)c(OC)cc12 [ZIMLOVISERTIB]

% of control ([9]; at 1 µM): 28%
% of control ([9]; at 5 µM): 13%
Compound: C=CC(=O)Nc1cccc(C(=O)Nc2ccc(Nc3cc(-c4[nH]c(SC)nc4C)ccn3)cc2)c1

Compound: CCC(=O)N1CCN(c2ccc(-n3c(=O)ccc4cnc5ccc(-c6cnc7ccccc7c6)cc5c43)cc2C(F)(F)F)CC1
% of control [10]: 55%
